The values that follow come from paper PMC6580635, “Neuropilin-1 drives tumor-specific uptake of chlorotoxin” (Cell Communication and Signaling : CCS, 2019).

Data set [1] addresses T1, NRP1 (Homo sapiens, UniProt O14786).
T1 construct: purchased Sino Biological Inc. 10011-H02H
T1 sequence (O14786 22-644 isoform O14786-2 limits assumed): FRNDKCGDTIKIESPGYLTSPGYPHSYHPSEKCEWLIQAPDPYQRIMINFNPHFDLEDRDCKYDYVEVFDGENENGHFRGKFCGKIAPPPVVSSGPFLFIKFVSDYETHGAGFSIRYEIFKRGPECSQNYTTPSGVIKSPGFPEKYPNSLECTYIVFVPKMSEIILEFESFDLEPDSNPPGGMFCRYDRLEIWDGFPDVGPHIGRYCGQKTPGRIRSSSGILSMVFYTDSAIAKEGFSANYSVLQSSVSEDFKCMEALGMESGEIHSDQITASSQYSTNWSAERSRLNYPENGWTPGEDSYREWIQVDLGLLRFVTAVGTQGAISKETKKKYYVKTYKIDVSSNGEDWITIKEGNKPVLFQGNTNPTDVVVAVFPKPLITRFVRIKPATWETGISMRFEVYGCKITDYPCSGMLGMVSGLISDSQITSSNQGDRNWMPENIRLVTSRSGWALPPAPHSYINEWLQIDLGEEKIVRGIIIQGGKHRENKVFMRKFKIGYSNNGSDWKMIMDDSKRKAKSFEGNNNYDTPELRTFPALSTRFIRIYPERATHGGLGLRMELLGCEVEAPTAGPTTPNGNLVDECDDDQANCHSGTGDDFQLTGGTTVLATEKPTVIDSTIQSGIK
Kind of data set: Bio-layer interferometry (Octet) binding of Cltx and derived peptides to NRP1. Conditions: BLI; biotinylated peptides on streptavidin biosensors, NRP1 0 to 1750 nM; mean of 2 to 6 independent experiments; ns = no significant binding. Here is the method: Octet binding studies required biotinylation of Cltx and derived peptides for loading onto streptavidin biosensors. Trypsin, (Promega Cat# V5280) (~ 40 μg/mL) was added to Cltx biotinylated at K27 or N-terminus (10 mg/mL) and incubated for 24 h at 37 °C, pH 8.5. The resulting peptides were separated by preparative HPLC and peptide fragments were characterized by MALDI. Small linear Cltx-derived peptides were also synthesized by routine methods and were biotinylated at the N-terminus. In some cases, peptides were reduced with TCEP at pH 8 and the cysteine residues were capped using iodoacetamide.
Assessment of binding between NRP1and Cltx was performed by Bio-Layer Interferometry (BLI) using the Octet Red96 System (ForteBio, Pall). Cltx and derived fragments were captured on streptavidin biosensors (Cat# 18–5020) under approximately equivalent loading conditions; sensors were then quenched with EZ-Link Biocytin and washed in assay buffer (PBS, 1% BSA, 0.05% Tween20).

Another data set has as its system crayfish. Kind of data set: Crayfish bioassay (neurotoxicity, paralysis). In kind it is in vivo. Conditions: 20 µg per injection, n=8 crayfish; Kaplan-Meier analysis.
Data set [2] has as its target T1, NRP1. Description: BLI competition with biotinylated VEGF165 for binding to NRP1. The conditions noted are these: NRP1 fixed at 390 nM, Cltx peptide 50 to 800 μmol/L.
For the next data set, the target named is T2, Neuropilin-1 (NRP1) (UniProt O14786 22-856).
T2 construct: The R&D Systems NRP1 Phe22-Lys644 (Cat# 3870-N1) was only a control in Western blots
T2 sequence (looked up): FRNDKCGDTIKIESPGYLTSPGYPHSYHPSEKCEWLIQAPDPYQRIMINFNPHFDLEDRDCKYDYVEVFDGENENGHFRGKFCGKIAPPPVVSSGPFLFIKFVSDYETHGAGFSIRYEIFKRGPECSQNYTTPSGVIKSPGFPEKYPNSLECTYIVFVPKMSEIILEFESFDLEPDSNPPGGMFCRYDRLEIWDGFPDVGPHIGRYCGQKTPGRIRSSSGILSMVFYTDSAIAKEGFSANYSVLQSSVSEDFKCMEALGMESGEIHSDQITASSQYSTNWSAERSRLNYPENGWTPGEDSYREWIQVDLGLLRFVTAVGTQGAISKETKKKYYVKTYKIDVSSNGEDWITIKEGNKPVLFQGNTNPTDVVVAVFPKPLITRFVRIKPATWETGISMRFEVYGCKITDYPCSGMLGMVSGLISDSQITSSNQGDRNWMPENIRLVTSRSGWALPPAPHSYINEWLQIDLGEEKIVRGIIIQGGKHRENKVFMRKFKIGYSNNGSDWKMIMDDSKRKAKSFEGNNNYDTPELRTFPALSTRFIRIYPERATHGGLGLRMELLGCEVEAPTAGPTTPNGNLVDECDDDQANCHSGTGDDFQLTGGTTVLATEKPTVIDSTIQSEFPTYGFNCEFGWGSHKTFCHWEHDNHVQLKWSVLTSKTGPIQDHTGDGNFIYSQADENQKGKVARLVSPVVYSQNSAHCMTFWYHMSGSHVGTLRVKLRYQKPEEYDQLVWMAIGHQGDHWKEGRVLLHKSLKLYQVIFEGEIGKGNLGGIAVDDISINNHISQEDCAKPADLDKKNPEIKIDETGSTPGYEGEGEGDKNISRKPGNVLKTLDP
Kind of data set: BLI; affinity of NRP1 for VEGF given beside the peptides of Table 1; set-up for VEGF not told separately. The conditions noted are these: both partners purified. (BLI is a label-free optical method that tracks binding on a fibre tip over time.)

Peptide text beside a SMILES is read from it. * marks the point of attachment. Biotin = O=C1N[C@H]2[C@H](CS[C@H]2CCCCC(=O)*)N1; Cam = NC(=O)C*

Experimental for crayfish: The crayfish assay to determine bioactivity of Cltx was performed at ABC Labs (Columbia, MO, now EAG Labs) using an SOP generated by TransMolecular Inc. Cltx peptide (20 μg) in sterile water was injected through the ventral surface of the thorax in the region of the sub-esophageal ganglion of crayfish which were then subjected to physical challenge defined as multiple, continuous, gentle prods in random parts of the body from head to tail. The animal’s response is based on avoidance, ability to right itself, and clasping with chelae in a defensive manner. Time from injection to total incapacitation was recorded; total incapacitation is defined as the time when the tested crayfish is not responsive when physically challenged.

In the case of `CC(C)C[C@H](NC(=O)[C@H](CSCC(N)=O)NC(=O)[C@H](CCC(N)=O)NC(=O)[C@@H]1CCCN1C(=O)CNC(=O)[C@H](Cc1ccc(O)cc1)NC(=O)CCCC[C@@H]1SC[C@@H]2NC(=O)N[C@@H]21)C(=O)N[C@@H](CSCC(N)=O)C(=O)N[C@@H](CCCNC(=N)N)C(=O)O` [C00008] (Biotin-YGPQC(Cam)LC(Cam)R-OH), the dissociation constant Kd on NRP1 [1] was 297 nM.

Consider `CSCC[C@H](NC(=O)CCCC[C@@H]1SC[C@@H]2NC(=O)N[C@@H]21)C(=O)N[C@H]1CSSC[C@@H](C(=O)N[C@@H](Cc2ccccc2)C(=O)N[C@H](C(=O)N[C@H](C(=O)N[C@@H](CC(=O)O)C(=O)N[C@@H](Cc2c[nH]cn2)C(=O)N[C@@H](CCC(N)=O)C(=O)N[C@@H](CCSC)C(=O)N[C@@H](C)C(=O)N[C@@H](CCCNC(=N)N)C(=O)O)[C@@H](C)O)[C@@H](C)O)NC(=O)[C@@H]2CCCN2C(=O)[C@H](CCSC)NC1=O` [C00003], for which the Kd at NRP1 [1] is 167 nM.

As to Chlorotoxin [Cltx-CONH2], the “Median time to paralysis (total incapacitation)” value with crayfish amounted to 25 s. Moreover, the “Competition with biotinylated VEGF for binding to NRP1” value at NRP1 [2] is on record as “not”.

For `CC(C)C[C@H](NC(=O)[C@H](CSCC(N)=O)NC(=O)CCCC[C@@H]1SC[C@@H]2NC(=O)N[C@@H]21)C(=O)N[C@@H](CSCC(N)=O)C(=O)N[C@@H](CCCNC(=N)N)C(=O)O` [C00011] (Biotin-C(Cam)LC(Cam)R-OH), the Kd on NRP1 [1] was found to be 335 nM.

B1: Biotinylated VEGF165 (ligand)
chain: APMAEGGGQNHHEVVKFMDVYQRSYCHPIETLVDIFQEYPDEIEYIFKPSCVPLMRCGGCCNDEGLECVPTEESNITMQIMRIKPHQGQHIGEMSFLQHNKCECRPKKDRARQENPCGPCSERRKHLFVQDPQTCKCSCKNTDSRCKARQLELNERTCRCDKPRR
modifications: biotin
B1 gave a Kd in the data set with Neuropilin-1 (NRP1) of roughly 50 nM.

Broadly, the Kd is the free concentration of one partner at which half of the binding sites on the other are occupied at equilibrium, for simple one-to-one binding. Higher therefore signals lower affinity.
